Test results published in PubChem BioAssay (NCI).
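Grown in 96-well plates, cells were treated for 48 hours with each compound at five concentrations. Insufficient inhibition: endpoint recorded as highest concentration tested. TGI denotes the concentration required for complete inhibition of growth.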

Experiments:
Experiment in all cases: NCI anticancer screen, dose series, 48 h
[1] = tested on: SK-MEL-5 melanoma
[2] = tested on: DU-145 prostate
[3] = tested on: SF-295 CNS
[4] = tested on: LOX IMVI melanoma
[5] = tested on: K-562 leukemia
[6] = tested on: OVCAR-5 ovarian
[7] = tested on: U251 CNS
[8] = tested on: SK-MEL-28 melanoma
[9] = tested on: CAKI-1 renal
[10] = tested on: SK-MEL-2 melanoma
[11] = tested on: UACC-257 melanoma
[12] = tested on: HS 578T breast
[13] = tested on: SW-620 colon
[14] = tested on: KM12 colon
[15] = tested on: UO-31 renal
[16] = tested on: HOP-92 NSCLC
[17] = tested on: SNB-75 CNS
[18] = tested on: T-47D breast
[19] = tested on: A549 NSCLC
[20] = tested on: UACC-62 melanoma
[21] = tested on: SR leukemia
[22] = tested on: SNB-19 CNS
[23] = tested on: SK-OV-3 ovarian
[24] = tested on: OVCAR-4 ovarian
[25] = tested on: MALME-3M melanoma
[26] = tested on: NCI-H226 lung
[27] = tested on: NCI-H460 lung
[28] = tested on: OVCAR-8 ovarian
[29] = tested on: PC-3 prostate
[30] = tested on: BT-549 breast
[31] = tested on: TK-10 renal
[32] = tested on: ACHN renal
[33] = tested on: HT29 colon
[34] = tested on: HL-60(TB) leukemia
[35] = tested on: CCRF-CEM leukemia
[36] = tested on: HOP-62 NSCLC
[37] = tested on: HCT-116 colon
[38] = tested on: EKVX NSCLC
[39] = tested on: HCT-15 colon
[40] = tested on: 786-0 renal
[41] = tested on: SN12C renal
[42] = tested on: OVCAR-3 ovarian
[43] = tested on: RPMI-8226 leukemia
[44] = tested on: MDA-MB-435
[45] = tested on: NCI/ADR-RES ovarian
[46] = tested on: NCI-H522 lung
[47] = tested on: MDA-N
[48] = tested on: NCI-H23 lung
[49] = tested on: M14 melanoma
[50] = tested on: MCF7 breast
[51] = tested on: IGROV1 ovarian
[52] = tested on: COLO 205 colon
[53] = tested on: SF-268 CNS
[54] = tested on: RXF 393 renal
[55] = tested on: MOLT-4 leukemia
[56] = tested on: SF-539 CNS
[57] = tested on: MDA-MB-231 breast

O=[N+]([O-])c1ccc(N/N=C2\C=CCCC2)c([N+](=O)[O-])c1
TGI [1]: > 100 µM | TGI [2]: > 100 µM | TGI [3]: > 100 µM | TGI [4]: > 100 µM | TGI [5]: > 100 µM | TGI [6]: > 100 µM | TGI [7]: > 100 µM | TGI [8]: > 100 µM | TGI [9]: > 100 µM | TGI [10]: > 100 µM | TGI [11]: > 100 µM | TGI [12]: > 100 µM | TGI [13]: > 100 µM | TGI [14]: > 100 µM | TGI [15]: > 100 µM | TGI [16]: > 100 µM | TGI [17]: 73 µM | TGI [18]: > 100 µM | TGI [19]: > 100 µM | TGI [20]: > 100 µM | TGI [21]: > 100 µM | TGI [22]: > 100 µM | TGI [23]: > 100 µM | TGI [24]: > 100 µM | TGI [25]: > 100 µM | TGI [26]: > 100 µM | TGI [27]: > 100 µM | TGI [28]: > 100 µM | TGI [29]: > 100 µM | TGI [30]: > 100 µM | TGI [31]: > 100 µM | TGI [32]: > 100 µM | TGI [33]: > 100 µM | TGI [34]: > 100 µM | TGI [35]: > 100 µM | TGI [36]: > 100 µM | TGI [37]: > 100 µM | TGI [38]: > 100 µM | TGI [39]: > 100 µM | TGI [40]: > 100 µM | TGI [41]: > 100 µM | TGI [42]: > 100 µM | TGI [43]: > 100 µM | TGI [44]: > 100 µM | TGI [45]: > 100 µM | TGI [46]: > 100 µM | TGI [47]: > 100 µM | TGI [48]: > 100 µM | TGI [49]: > 100 µM | TGI [50]: > 100 µM | TGI [51]: > 100 µM | TGI [52]: > 100 µM | TGI [53]: > 100 µM

[N-]=[N+]=NC1=C(C(=O)c2ccccc2)C(=O)c2cccc3cccc1c23
TGI [1]: > 100 µM | TGI [3]: > 100 µM | TGI [5]: > 100 µM | TGI [6]: > 100 µM | TGI [7]: > 100 µM | TGI [8]: > 100 µM | TGI [9]: > 100 µM | TGI [10]: 69.6 µM | TGI [54]: 71 µM | TGI [11]: > 100 µM | TGI [12]: 61.4 µM | TGI [13]: > 100 µM | TGI [14]: > 100 µM | TGI [15]: > 100 µM | TGI [16]: > 100 µM | TGI [17]: 33.4 µM | TGI [18]: > 100 µM | TGI [19]: > 100 µM | TGI [20]: > 100 µM | TGI [21]: 77.6 µM | TGI [22]: > 100 µM | TGI [23]: > 100 µM | TGI [24]: > 100 µM | TGI [25]: > 100 µM | TGI [55]: > 100 µM | TGI [26]: > 100 µM | TGI [56]: > 100 µM | TGI [57]: 87.2 µM | TGI [28]: > 100 µM | TGI [29]: > 100 µM | TGI [30]: > 100 µM | TGI [31]: > 100 µM | TGI [32]: > 100 µM | TGI [33]: > 100 µM | TGI [35]: > 100 µM | TGI [36]: 62 µM | TGI [37]: > 100 µM | TGI [38]: 89.2 µM | TGI [40]: > 100 µM | TGI [41]: > 100 µM | TGI [42]: > 100 µM | TGI [43]: > 100 µM | TGI [44]: > 100 µM | TGI [45]: > 100 µM | TGI [46]: 81.5 µM | TGI [47]: > 100 µM | TGI [48]: > 100 µM | TGI [49]: > 100 µM | TGI [50]: > 100 µM | TGI [51]: 88.5 µM | TGI [52]: > 100 µM | TGI [53]: 36.2 µM
